Source: patent publication US12240816B2, “Deuterated compounds and uses thereof” (Aldeyra Therapeutics, Inc., priority 2015, dated 2025)
“Also recorded” adds a separate entry of the source. Like-named read-outs stand apart in the source and are kept apart here.

Tests used:
5-HT2B (h) = 5-HT2B (h) (Homo sapiens, UniProt P41595); test: 5-HT2B (h) (agonist radioligand) binding assay; conditions: 1.0E−05M
MT3 (ML2) = molecular target: T1, MT3 (ML2) (Mesocricetus auratus, UniProt A0ABM2YAB8); test: MT3 (ML2) (agonist radioligand) binding assay; conditions: MT3 (ML2)(h) (agonist radioligand), 1.0E−05M
T1 sequence (A0ABM2YAB8 1-231): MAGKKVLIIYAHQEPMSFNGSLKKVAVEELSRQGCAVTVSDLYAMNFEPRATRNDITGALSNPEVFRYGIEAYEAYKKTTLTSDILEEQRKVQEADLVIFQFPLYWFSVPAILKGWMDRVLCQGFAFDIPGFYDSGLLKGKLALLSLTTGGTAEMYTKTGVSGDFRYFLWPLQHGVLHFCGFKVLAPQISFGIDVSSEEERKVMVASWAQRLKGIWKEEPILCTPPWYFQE

guanylyl cyclase (h) = guanylyl cyclase (h) (Homo sapiens, UniProt Q02108+Q02153); format: biochemical; conditions: guanylyl cyclase (h) (activator effect); 1.0E−05M
acetylcholinesterase (h) = acetylcholinesterase (h) (Homo sapiens, UniProt P22303); test: biochemical
[1] = molecular target: enzyme and uptake assay panel targets (Table 36) (Homo sapiens, UniProt P00519); test: biochemical; format: biochemical; conditions: Abl kinase (h); 1.0E−05M
[2] = molecular target: enzyme and uptake assay panel targets (Table 36) (Homo sapiens, UniProt P17948); test: biochemical; format: biochemical; conditions: FLT-1 kinase (h) (VEGFR1); 1.0E−05M
[3] = molecular target: enzyme and uptake assay panel targets (Table 36) (Homo sapiens, UniProt P08473); test: biochemical; format: biochemical; conditions: Peptidase, Metalloproteinase, Neutral Endopeptidase; 1.0E−05M
[4] = molecular target: enzyme and uptake assay panel targets (Table 36) (Homo sapiens, UniProt Q14790); test: biochemical; format: biochemical; conditions: caspase-8 (h); 1.0E−05M
[5] = molecular target: enzyme and uptake assay panel targets (Table 36) (Homo sapiens, UniProt P28482); test: biochemical; format: biochemical; conditions: ERK2 (h) (P42^mapk); 1.0E−05M
[6] = molecular target: enzyme and uptake assay panel targets (Table 36) (Homo sapiens, UniProt P06241); test: biochemical; format: biochemical; conditions: Fyn kinase (h); 1.0E−05M
[7] = molecular target: enzyme and uptake assay panel targets (Table 36) (Homo sapiens, UniProt O00408); test: biochemical; format: biochemical; conditions: PDE2A1 (h); 1.0E−05M
[8] = molecular target: enzyme and uptake assay panel targets (Table 36) (Homo sapiens, UniProt P18054); test: biochemical; format: biochemical; conditions: 12-lipoxygenase (h); 1.0E−05M
[9] = molecular target: enzyme and uptake assay panel targets (Table 36) (Homo sapiens, UniProt O76074); test: biochemical; format: biochemical; conditions: PDE5 (h) (non-selective); 1.0E−05M
[10] = molecular target: enzyme and uptake assay panel targets (Table 36) (Homo sapiens, UniProt P14780); test: biochemical; format: biochemical; conditions: MMP-9 (h); 1.0E−05M; flag INTER: Test compound interferes with the assay detection method
[11] = molecular target: enzyme and uptake assay panel targets (Table 36) (Homo sapiens, UniProt P42574); test: biochemical; format: biochemical; conditions: caspase-3 (h); 1.0E−05M
[12] = molecular target: enzyme and uptake assay panel targets (Table 36) (Homo sapiens, UniProt P24941); test: biochemical; format: biochemical; conditions: CDK2 (h) (cycA); 1.0E−05M
human hepatocytes = format: in vitro ADME
[13] = read-out: % Inhibition of Control Specific Binding 1st
[14] = read-out: % Inhibition of Control Specific Binding 2nd
[15] = read-out: % Inhibition of Control Specific Binding Mean

enzyme and uptake assay panel targets (Table 36) (Homo sapiens, UniProt P18054), sequence (P18054 whole entry): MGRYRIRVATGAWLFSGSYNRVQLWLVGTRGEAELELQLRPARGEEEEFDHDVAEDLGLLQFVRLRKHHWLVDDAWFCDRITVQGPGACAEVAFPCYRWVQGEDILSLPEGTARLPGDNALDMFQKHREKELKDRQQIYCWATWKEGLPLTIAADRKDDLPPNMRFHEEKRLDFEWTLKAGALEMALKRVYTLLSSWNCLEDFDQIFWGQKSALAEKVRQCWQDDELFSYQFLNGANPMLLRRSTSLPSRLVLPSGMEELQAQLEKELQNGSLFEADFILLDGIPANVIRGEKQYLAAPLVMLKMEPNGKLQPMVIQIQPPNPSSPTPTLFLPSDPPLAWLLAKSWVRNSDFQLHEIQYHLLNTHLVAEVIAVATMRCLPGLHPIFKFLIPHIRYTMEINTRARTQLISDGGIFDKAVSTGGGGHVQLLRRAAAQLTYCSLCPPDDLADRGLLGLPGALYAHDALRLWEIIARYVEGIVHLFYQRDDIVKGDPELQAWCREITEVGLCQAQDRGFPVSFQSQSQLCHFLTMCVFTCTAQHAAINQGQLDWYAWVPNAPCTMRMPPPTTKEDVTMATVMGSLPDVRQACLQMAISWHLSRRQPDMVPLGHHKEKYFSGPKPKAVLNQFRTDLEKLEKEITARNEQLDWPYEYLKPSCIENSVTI
enzyme and uptake assay panel targets (Table 36) (Homo sapiens, UniProt P08473), sequence (P08473 whole entry): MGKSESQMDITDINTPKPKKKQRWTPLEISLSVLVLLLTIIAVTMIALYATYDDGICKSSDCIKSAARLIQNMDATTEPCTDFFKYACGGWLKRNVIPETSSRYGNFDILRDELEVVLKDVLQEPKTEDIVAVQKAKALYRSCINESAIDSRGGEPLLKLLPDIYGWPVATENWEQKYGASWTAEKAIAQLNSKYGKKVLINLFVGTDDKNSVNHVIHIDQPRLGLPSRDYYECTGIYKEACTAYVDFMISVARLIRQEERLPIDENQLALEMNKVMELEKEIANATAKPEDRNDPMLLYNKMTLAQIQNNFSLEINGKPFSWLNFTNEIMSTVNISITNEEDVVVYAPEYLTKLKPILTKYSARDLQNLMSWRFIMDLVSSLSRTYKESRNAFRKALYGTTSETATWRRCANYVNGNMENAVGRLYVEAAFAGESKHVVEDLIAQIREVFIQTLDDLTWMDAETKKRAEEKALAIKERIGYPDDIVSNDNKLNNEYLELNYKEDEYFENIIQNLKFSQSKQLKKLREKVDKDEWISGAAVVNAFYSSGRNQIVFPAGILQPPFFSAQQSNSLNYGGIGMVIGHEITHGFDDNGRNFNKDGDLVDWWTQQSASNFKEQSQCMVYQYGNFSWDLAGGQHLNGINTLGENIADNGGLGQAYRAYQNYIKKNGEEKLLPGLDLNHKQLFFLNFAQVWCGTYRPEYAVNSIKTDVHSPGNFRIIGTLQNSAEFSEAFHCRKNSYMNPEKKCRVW
enzyme and uptake assay panel targets (Table 36) (Homo sapiens, UniProt P28482), sequence (P28482 whole entry): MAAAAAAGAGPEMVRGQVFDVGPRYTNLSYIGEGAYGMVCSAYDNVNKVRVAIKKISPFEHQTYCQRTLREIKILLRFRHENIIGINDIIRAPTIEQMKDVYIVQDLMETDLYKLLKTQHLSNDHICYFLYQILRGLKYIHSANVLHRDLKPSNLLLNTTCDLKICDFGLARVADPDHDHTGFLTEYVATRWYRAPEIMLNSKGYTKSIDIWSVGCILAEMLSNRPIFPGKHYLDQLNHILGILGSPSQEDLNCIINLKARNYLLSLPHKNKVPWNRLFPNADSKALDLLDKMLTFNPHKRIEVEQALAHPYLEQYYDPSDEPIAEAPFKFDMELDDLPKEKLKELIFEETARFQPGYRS
enzyme and uptake assay panel targets (Table 36) (Homo sapiens, UniProt P14780), sequence (P14780 94-707): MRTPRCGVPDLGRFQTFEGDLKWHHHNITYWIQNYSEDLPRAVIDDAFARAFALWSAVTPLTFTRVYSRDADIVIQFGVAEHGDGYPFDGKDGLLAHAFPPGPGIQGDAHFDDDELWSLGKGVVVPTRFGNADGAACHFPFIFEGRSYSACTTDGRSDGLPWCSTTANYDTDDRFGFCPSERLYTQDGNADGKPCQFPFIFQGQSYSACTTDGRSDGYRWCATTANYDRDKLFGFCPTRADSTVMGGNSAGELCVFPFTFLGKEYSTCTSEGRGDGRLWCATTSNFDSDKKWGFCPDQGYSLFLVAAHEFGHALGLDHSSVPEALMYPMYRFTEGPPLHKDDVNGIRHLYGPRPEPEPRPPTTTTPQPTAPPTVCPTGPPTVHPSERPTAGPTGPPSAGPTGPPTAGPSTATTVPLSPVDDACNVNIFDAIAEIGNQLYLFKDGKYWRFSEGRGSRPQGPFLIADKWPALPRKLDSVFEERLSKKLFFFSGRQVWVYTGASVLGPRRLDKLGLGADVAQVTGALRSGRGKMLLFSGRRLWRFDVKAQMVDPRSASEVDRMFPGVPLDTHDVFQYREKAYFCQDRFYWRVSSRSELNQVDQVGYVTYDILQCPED
enzyme and uptake assay panel targets (Table 36) (Homo sapiens, UniProt Q14790), sequence (Q14790 217-479): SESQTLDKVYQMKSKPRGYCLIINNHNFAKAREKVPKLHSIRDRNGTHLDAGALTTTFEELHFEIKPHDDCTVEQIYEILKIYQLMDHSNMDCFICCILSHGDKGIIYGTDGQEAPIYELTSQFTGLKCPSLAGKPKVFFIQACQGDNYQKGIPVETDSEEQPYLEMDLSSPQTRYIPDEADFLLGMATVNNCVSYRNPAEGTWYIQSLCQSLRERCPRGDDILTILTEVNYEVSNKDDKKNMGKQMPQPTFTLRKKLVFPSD
enzyme and uptake assay panel targets (Table 36) (Homo sapiens, UniProt O00408), sequence (O00408 whole entry): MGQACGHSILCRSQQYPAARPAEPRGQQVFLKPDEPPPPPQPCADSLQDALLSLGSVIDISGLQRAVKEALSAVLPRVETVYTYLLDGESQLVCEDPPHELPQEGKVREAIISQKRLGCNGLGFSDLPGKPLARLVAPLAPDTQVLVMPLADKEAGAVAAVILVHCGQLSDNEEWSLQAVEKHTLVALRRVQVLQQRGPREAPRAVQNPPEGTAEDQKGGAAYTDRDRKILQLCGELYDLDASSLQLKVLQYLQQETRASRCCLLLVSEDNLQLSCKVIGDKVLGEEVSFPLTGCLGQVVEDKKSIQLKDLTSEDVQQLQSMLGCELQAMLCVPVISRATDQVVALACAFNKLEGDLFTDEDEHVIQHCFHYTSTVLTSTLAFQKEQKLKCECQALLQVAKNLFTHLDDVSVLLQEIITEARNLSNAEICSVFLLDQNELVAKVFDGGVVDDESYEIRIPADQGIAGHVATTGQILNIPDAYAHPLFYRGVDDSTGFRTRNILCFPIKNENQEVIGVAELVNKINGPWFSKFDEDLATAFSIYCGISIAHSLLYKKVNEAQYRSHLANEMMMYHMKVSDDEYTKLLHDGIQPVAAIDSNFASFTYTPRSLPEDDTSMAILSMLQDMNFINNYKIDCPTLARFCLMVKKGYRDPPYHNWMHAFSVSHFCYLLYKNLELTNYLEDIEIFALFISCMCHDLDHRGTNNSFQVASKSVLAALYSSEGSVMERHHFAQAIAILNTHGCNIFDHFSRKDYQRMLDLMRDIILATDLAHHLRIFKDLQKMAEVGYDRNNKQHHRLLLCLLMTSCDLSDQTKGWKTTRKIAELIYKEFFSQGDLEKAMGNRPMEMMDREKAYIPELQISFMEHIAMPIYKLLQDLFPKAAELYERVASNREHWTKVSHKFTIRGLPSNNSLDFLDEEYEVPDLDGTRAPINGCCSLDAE
enzyme and uptake assay panel targets (Table 36) (Homo sapiens, UniProt P17948), sequence (P17948 27-1338): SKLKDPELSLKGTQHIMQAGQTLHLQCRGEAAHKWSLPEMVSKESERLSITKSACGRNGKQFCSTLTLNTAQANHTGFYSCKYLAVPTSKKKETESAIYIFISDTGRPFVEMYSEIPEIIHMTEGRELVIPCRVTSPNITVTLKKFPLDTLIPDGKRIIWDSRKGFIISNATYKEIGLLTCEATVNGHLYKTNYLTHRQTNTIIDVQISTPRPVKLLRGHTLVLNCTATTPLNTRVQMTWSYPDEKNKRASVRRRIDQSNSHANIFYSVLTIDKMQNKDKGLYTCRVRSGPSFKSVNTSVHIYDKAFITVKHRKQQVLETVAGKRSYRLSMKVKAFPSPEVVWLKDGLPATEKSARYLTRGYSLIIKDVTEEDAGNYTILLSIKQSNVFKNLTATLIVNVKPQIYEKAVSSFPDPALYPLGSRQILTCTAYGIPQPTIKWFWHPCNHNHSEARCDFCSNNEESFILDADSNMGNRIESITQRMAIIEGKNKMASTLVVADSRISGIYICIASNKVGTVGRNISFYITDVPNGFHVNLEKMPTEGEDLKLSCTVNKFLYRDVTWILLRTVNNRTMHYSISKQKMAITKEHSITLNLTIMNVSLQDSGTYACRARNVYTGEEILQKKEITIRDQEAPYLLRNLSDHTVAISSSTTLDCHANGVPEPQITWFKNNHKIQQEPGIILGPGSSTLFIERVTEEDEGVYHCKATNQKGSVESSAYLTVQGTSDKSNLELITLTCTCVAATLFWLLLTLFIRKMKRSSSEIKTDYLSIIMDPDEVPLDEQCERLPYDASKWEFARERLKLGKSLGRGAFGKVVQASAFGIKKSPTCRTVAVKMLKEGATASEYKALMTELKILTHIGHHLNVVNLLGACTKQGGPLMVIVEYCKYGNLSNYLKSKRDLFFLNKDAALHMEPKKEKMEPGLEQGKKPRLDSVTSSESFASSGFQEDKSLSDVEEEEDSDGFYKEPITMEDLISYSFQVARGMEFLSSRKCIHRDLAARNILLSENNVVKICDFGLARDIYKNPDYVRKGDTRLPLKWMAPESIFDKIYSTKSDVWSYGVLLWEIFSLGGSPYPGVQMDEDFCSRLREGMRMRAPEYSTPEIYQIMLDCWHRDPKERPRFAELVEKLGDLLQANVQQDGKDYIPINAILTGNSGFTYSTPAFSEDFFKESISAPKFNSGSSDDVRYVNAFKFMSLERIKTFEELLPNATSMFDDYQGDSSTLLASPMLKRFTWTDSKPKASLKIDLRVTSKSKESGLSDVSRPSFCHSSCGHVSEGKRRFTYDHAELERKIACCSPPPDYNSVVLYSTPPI

[2H]C([2H])([2H])C(O)(c1nc2ccc(Cl)cc2cc1N)C([2H])([2H])[2H] [Compound I-1]
inhibition at 10 µM (5-HT2B (h); [13]): 60.8% | inhibition at 10 µM (5-HT2B (h); [14]): 64.2% | inhibition at 10 µM (5-HT2B (h); [15]): 62.5% | inhibition at 10 µM (MT3 (ML2); [13]): 69% | inhibition at 10 µM (MT3 (ML2); [14]): 73.3% | inhibition at 10 µM (MT3 (ML2); [15]): 71.1% | % of Control Values 1st (guanylyl cyclase (h)): 0.2% | % of Control Values 2nd (guanylyl cyclase (h)): 0.3% | % of Control Values Mean (guanylyl cyclase (h)): 0.2% | inhibition at 10 µM (acetylcholinesterase (h); read-out: % inhibition of Control Values 1st): 45.8% | inhibition at 10 µM (acetylcholinesterase (h); read-out: % inhibition of Control Values 2nd): 60.1% | inhibition at 10 µM (acetylcholinesterase (h); read-out: % inhibition of Control Values Mean): 52.9% | % inhibition of Control Values 1st [1]: −4.8% | % inhibition of Control Values 2nd [1]: −11.6% | % inhibition of Control Values Mean [1]: −8.2% | % inhibition of Control Values 1st [2]: −15.5% | % inhibition of Control Values 2nd [2]: −18.8% | % inhibition of Control Values Mean [2]: −17.2% | % inhibition of Control Values 1st [3]: 0.3% | % inhibition of Control Values 2nd [3]: 3.0% | % inhibition of Control Values Mean [3]: 1.7% | % inhibition of Control Values 1st [4]: 14.7% | % inhibition of Control Values 2nd [4]: 16.4% | % inhibition of Control Values Mean [4]: 15.6% | % inhibition of Control Values 1st [5]: −6.3% | % inhibition of Control Values 2nd [5]: −1.3% | % inhibition of Control Values Mean [5]: −3.8% | % inhibition of Control Values 1st [6]: −8.6% | % inhibition of Control Values 2nd [6]: −0.3% | % inhibition of Control Values Mean [6]: −4.5% | % inhibition of Control Values 1st [7]: 17.1% | % inhibition of Control Values 2nd [7]: −24.5% | % inhibition of Control Values Mean [7]: −3.7% | % inhibition of Control Values 1st [8]: −9.4% | % inhibition of Control Values 2nd [8]: −4.1% | % inhibition of Control Values Mean [8]: −6.7% | % inhibition of Control Values 1st [9]: −8.6% | % inhibition of Control Values 2nd [9]: −2.9% | % inhibition of Control Values Mean [9]: −5.7% | % inhibition of Control Values 1st [10]: 4.5% | % inhibition of Control Values 2nd [10]: 4.4% | % inhibition of Control Values Mean [10]: 4.4% | % inhibition of Control Values 1st [11]: −2.0% | % inhibition of Control Values 2nd [11]: 2.5% | % inhibition of Control Values Mean [11]: 0.2% | % inhibition of Control Values 1st [12]: 1.2% | % inhibition of Control Values 2nd [12]: −5.1% | % inhibition of Control Values Mean [12]: −1.9%

CC(C)(O)c1nc2ccc(Cl)cc2cc1N [NS2, 2-(3-amino-6-chloroquinolin-2-yl)propan-2-ol]
metabolite profile (rat hepatocytes; NS2, 120 min, rat hepatocytes): metabolized to M1, M7, and M8, with some unchanged NS2 remaining | Peak Areas Rat (rat hepatocytes; rat, 120 min, 3 μM): 3.14E+08 | metabolite profile (human hepatocytes; NS2, 120 min, human hepatocytes): metabolized to M1, M7, M8, and a low amount of M9, with some unchanged NS2 remaining; also recorded: a mono-oxidation metabolite (M), two oxidation+glucuronidation metabolites (M7 and M9), and a glucuronidation metabolite (M) | Peak Areas Human (human hepatocytes; human, 120 min, 3 μM): 4.41E+08
